This is an account of results in patent US20260124214A1, “HETEROCYCLIC COMPOUNDS FOR USE IN THE TREATMENT OF CANCER” (ARTIOS PHARMA LIMITED, priority 2021, published 2026).

Where a name gives a salt, the structure may show the parent alone.

Usually Ki stands for the equilibrium dissociation constant of an inhibitor or competing ligand from its target. High values mean lower affinity, low ones higher affinity.

The target in this assay is T1, Human Polθ polymerase domain (aa1820-2590) (Homo sapiens, UniProt O75417).
T1 construct: Human Polθ polymerase domain (aa1820-2590) was expressed in E. Coli; made in house; host or cells: E. coli
T1 sequence (O75417 1820-2590): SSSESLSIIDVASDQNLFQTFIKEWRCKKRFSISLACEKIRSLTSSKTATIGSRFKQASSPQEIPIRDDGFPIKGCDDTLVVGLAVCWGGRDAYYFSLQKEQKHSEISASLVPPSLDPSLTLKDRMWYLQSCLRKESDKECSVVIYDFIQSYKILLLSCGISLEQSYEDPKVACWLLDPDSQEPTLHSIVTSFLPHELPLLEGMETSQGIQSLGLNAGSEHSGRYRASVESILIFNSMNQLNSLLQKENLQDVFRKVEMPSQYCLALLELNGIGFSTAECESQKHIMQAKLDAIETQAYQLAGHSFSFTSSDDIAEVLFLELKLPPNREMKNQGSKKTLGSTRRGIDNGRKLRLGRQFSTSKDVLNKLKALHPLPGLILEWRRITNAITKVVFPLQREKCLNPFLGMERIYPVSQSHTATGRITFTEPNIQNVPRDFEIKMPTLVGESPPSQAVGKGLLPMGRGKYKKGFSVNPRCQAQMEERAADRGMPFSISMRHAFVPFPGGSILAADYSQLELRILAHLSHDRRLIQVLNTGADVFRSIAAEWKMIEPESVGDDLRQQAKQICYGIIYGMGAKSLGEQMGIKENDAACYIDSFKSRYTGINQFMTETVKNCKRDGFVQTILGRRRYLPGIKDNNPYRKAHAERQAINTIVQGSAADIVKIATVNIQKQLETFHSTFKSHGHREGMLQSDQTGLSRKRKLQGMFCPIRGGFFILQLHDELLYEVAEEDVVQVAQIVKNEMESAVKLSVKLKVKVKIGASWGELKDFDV
The assay is described as follows: Polθ Polymerase Domain WT KI Assay (PicoGreen). It counts as biochemical. The note with it: 100 nM DNA substrate, 0.156 nM Polθ, initial rates vs inhibitor concentration. A digest of the protocol:
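E. coli-expressed human Polθ polymerase domain (aa1820-2590) on annealed DNA II Short/Long primer-template (1.2:1), in 25 mM Tris pH 7.5, NaCl, 5% glycerol, 0.01% Triton X-100, 0.1 mg/ml BSA, 1 mM DTT, 1% DMSO. EDTA-quenched timepoints to 180 min, PicoGreen fluorescence. Initial rates vs inhibitor concentration fitted four-parameter for KI.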

The molecule `Cc1cc(C(F)(F)F)cc(N2C(=O)C[C@@H]3CN(CCN4C[C@H]5C[C@@H]4CN5C)c4c(C)cccc4N(C)C(=O)[C@H]32)n1` [Example 61, (3aR,11aS)-6,10-Dimethyl-5-(2-((1R,4R)-5-methyl-2,5-diazabicyclo[2.2.1]heptan-2-yl)ethyl)-1-(6-methyl-4-(trifluoromethyl)pyridin-2-yl)-1,3a,4,5,10,11a-hexahydro-2H-benzo[b]pyrrolo[2,3-f][1,4]diazocine-2,11(3H)-dione dihydrochloride] came in with a Ki of 0.759 nM.
The figure for `Cc1cc(C(F)(F)F)cc(N2C(=O)C[C@@H]3CNc4c(C)cccc4N(C)C(=O)[C@H]32)n1` [Example 3, (3aR,11aS)-6,10-Dimethyl-1-(6-methyl-4-(trifluoromethyl)pyridin-2-yl)-1,3a,4,5,10,11a-hexahydro-2H-benzo[b]pyrrolo[2,3-f][1,4]diazocine-2,11(3H)-dione] is 0.927 nM; for `Cc1cc(C(F)(F)F)cc(N2C(=O)C[C@@H]3CN(CCN4CCOC[C@H]4C)c4c(Cl)cccc4N(C)C(=O)[C@H]32)n1` [Example 24, (3aR,11aS)-6-Chloro-10-methyl-1-(6-methyl-4-(trifluoromethyl)pyridin-2-yl)-5-(2-((R)-3-methylmorpholino)ethyl)-1,3a,4,5,10,11a-hexahydro-2H-benzo[b]pyrrolo[2,3-f][1,4]diazocine-2,11(3H)-dione] it is 1.78 nM.
For the molecule `Cc1cc(C(F)(F)F)cc(N2C(=O)C[C@@H]3CN(CCN4CCS(=O)(=O)CC4)c4c(C)cccc4N(C)C(=O)[C@H]32)n1` [Example 68, (3aR,11aS)-5-(2-(1,1-Dioxidothiomorpholino)ethyl)-6,10-dimethyl-1-(6-methyl-4-(trifluoromethyl)pyridin-2-yl)-1,3a,4,5,10,11a-hexahydro-2H-benzo[b]pyrrolo[2,3-f][1,4]diazocine-2,11(3H)-dione], the Ki came to 1.07 nM.
As for `Cc1cc(C(F)(F)F)cc(N2C(=O)C[C@@H]3CN(CC(C)O)c4c(F)cccc4N(C)C(=O)[C@H]32)n1` (single isomer, unassigned) [Example 130b], the figure is 10.2 nM; as for `Cc1cc(C(F)(F)F)cc(N2C(=O)C[C@@H]3CN(CCN4CCN5C(=O)COC[C@H]5C4)c4c(C)cccc4N(C)C(=O)[C@H]32)n1` [Example 75, (3aR,11aS)-6,10-Dimethyl-1-(6-methyl-4-(trifluoromethyl)pyridin-2-yl)-5-(2-((R)-4-oxohexahydropyrazino[2,1-c][1,4]oxazin-8(1H)-yl)ethyl)-1,3a,4,5,10,11a-hexahydro-2H-benzo[b]pyrrolo[2,3-f][1,4]diazocine-2,11(3H)-dione], 1.81 nM; as for `Cc1cc(C(F)(F)F)cc(N2C(=O)C[C@@H]3CN(CCN4CCN(C)CC4)c4ccccc4N(C)C(=O)[C@H]32)n1` [Example 13, (3aR,11aS)-10-Methyl-1-(6-methyl-4-(trifluoromethyl)pyridin-2-yl)-5-(2-(4-methylpiperazin-1-yl)ethyl)-1,3a,4,5,10,11a-hexahydro-2H-benzo[b]pyrrolo[2,3-f][1,4]diazocine-2,11(3H)-dione dihydrochloride], 51.1 nM.
As for `Cc1cc(C(F)(F)F)cc(N2C(=O)C[C@@H]3CN(CCN4CC[C@@H](O)C4)c4c(C)cccc4N(C)C(=O)[C@H]32)n1` [Example 56, (3aR,11aS)-5-(2-((R)-3-Hydroxypyrrolidin-1-yl)ethyl)-6,10-dimethyl-1-(6-methyl-4-(trifluoromethyl)pyridin-2-yl)-1,3a,4,5,10,11a-hexahydro-2H-benzo[b]pyrrolo[2,3-f][1,4]diazocine-2,11(3H)-dione], the figure is 3.12 nM; as for `Cc1cc(C(F)(F)F)cc(N2C(=O)C[C@@H]3CN(CCN4CC[C@H](C(=O)N(C)C)C4)c4c(Cl)cccc4N(C)C(=O)[C@H]32)n1` [Example 41, (S)-1-(2-((3aR,11aS)-6-Chloro-10-methyl-1-(6-methyl-4-(trifluoromethyl)pyridin-2-yl)-2,11-dioxo-1,2,3,3a,4,10,11,11a-octahydro-5H-benzo[b]pyrrolo[2,3-f][1,4]diazocin-5-yl)ethyl)-N,N-dimethylpyrrolidine-3-carboxamide], 2.9 nM.
`Cc1cc(C(F)(F)F)cc(N2C(=O)C[C@@H]3CN(C[C@@H]4CCCCN4)c4c(Cl)cccc4N(C)C(=O)[C@H]32)n1` (racemic) [Example 105b, (3aR,11aS)-6-Chloro-10-methyl-1-(6-methyl-4-(trifluoromethyl)pyridin-2-yl)-5-(((S/R)-piperidin-2-yl)methyl)-1,3a,4,5,10,11a-hexahydro-2H-benzo[b]pyrrolo[2,3-f][1,4]diazocine-2,11(3H)-dione]: the Ki is 2.98 nM.
The figure for `Cc1cc(C(F)(F)F)cc(N2C(=O)C[C@@H]3CN(C[C@@H]4CCN(C)[C@H](C)C4)c4c(Cl)cccc4N(C)C(=O)[C@H]32)n1` (single isomer, unassigned) [Example 126b] is 1.91 nM; for `Cc1cc(C(F)(F)F)cc(N2C(=O)C[C@@H]3CN(CCOCCN(C)C)c4c(Cl)cccc4N(C)C(=O)[C@H]32)n1` [Example 89, (3aR,11aS)-6-Chloro-5-(2-(2-(dimethylamino)ethoxy)ethyl)-10-methyl-1-(6-methyl-4-(trifluoromethyl)pyridin-2-yl)-1,3a,4,5,10,11a-hexahydro-2H-benzo[b]pyrrolo[2,3-f][1,4]diazocine-2,11(3H)-dione hydrochloride] it is 1.85 nM; for `Cc1cc(C(F)(F)F)cc(N2C(=O)C[C@@H]3CN(CCN4CC[C@@H](C#N)C4)c4c(C)cccc4N(C)C(=O)[C@H]32)n1` [Example 71, (R)-1-(2-((3aR,11aS)-6,10-Dimethyl-1-(6-methyl-4-(trifluoromethyl)pyridin-2-yl)-2,11-dioxo-1,2,3,3a,4,10,11,11a-octahydro-5H-benzo[b]pyrrolo[2,3-f][1,4]diazocin-5-yl)ethyl)pyrrolidine-3-carbonitrile] it is 1.15 nM.
As for `Cc1cc(C(F)(F)F)cc(N2C(=O)C[C@@H]3CN(CCN4CCN[C@H](C)C4)c4c(Cl)cccc4N(C)C(=O)[C@H]32)n1` [Example 9, (3aR,11aS)-6-Chloro-10-methyl-1-(6-methyl-4-(trifluoromethyl)pyridin-2-yl)-5-(2-((R)-3-methylpiperazin-1-yl)ethyl)-1,3a,4,5,10,11a-hexahydro-2H-benzo[b]pyrrolo[2,3-f][1,4]diazocine-2,11(3H)-dione], the figure is 1.4 nM; as for `Cc1cc(C(F)(F)F)cc(N2C(=O)C[C@@H]3CN(CCN4CCN(C(=O)[C@@H](C)O)CC4)c4c(C)cccc4N(C)C(=O)[C@H]32)n1` [Example 51, (3aR,11aS)-5-(2-(4-((R)-2-Hydroxypropanoyl)piperazin-1-yl)ethyl)-6,10-dimethyl-1-(6-methyl-4-(trifluoromethyl)pyridin-2-yl)-1,3a,4,5,10,11a-hexahydro-2H-benzo[b]pyrrolo[2,3-f][1,4]diazocine-2,11(3H)-dione hydrochloride], 0.928 nM; as for `Cc1cc(C(F)(F)F)cc(N2C(=O)C[C@@H]3CN(CCN(C)CCO)c4c(C)cccc4N(C)C(=O)[C@H]32)n1` [Example 54, (3aR,11aS)-5-(2-((2-Hydroxyethyl)(methyl)amino)ethyl)-6,10-dimethyl-1-(6-methyl-4-(trifluoromethyl)pyridin-2-yl)-1,3a,4,5,10,11a-hexahydro-2H-benzo[b]pyrrolo[2,3-f][1,4]diazocine-2,11(3H)-dione], 5.56 nM.
As for `Cc1cc(C(F)(F)F)cc(N2C(=O)C[C@@H]3CN(CCN4CCN(C)CC4)c4c(Cl)cccc4N(C)C(=O)[C@H]32)n1` [Example 7, (3aR,11aS)-6-Chloro-10-methyl-1-(6-methyl-4-(trifluoromethyl)pyridin-2-yl)-5-(2-(4-methylpiperazin-1-yl)ethyl)-1,3a,4,5,10,11a-hexahydro-2H-benzo[b]pyrrolo[2,3-f][1,4]diazocine-2,11(3H)-dione], the figure is 2 nM.
Consider `Cc1cc(C(F)(F)F)cc(N2C(=O)C[C@@H]3CN(c4cccnc4)c4c(F)cccc4N(C)C(=O)[C@H]32)n1` [Example 138, (3aR,11aS)-6-Fluoro-10-methyl-1-(6-methyl-4-(trifluoromethyl)pyridin-2-yl)-5-(pyridin-3-yl)-1,3a,4,5,10,11a-hexahydro-2H-benzo[b]pyrrolo[2,3-f][1,4]diazocine-2,11(3H)-dione], for which the inhibition constant (Ki) turned out to be 645 nM.
The figure for `Cc1cc(C(F)(F)F)cc(N2C(=O)C[C@@H]3CNc4c(Cl)cccc4N(C)C(=O)[C@H]32)n1` [Example 2, (3aR,11aS)-6-Chloro-10-methyl-1-(6-methyl-4-(trifluoromethyl)pyridin-2-yl)-1,3a,4,5,10,11a-hexahydro-2H-benzo[b]pyrrolo[2,3-f][1,4]diazocine-2,11(3H)-dione] is 0.847 nM.
